Measurements from ChEMBL document CHEMBL3045954, “Synthesis and antidepressant activity of di substituted-5-aryl-1,2,4-triazoles” (Med Chem Res, 2012).
Activity calls are given as the source filed them. No cut-off for these calls is given here.

How the values were obtained:
Mus musculus [1] = experiment: Acute toxicity in Mus musculus Swiss albino (mouse) up to 2000 mg/kg, ip measured for 1 month; assay type: organism-based; set-up: dose 2000 mg/kg, route intraperitoneal; details: in vivo, 730.5 h
Mus musculus [2] = experiment: Antidepressant activity in overnight fasted Mus musculus (mouse) assessed as decrease in immobility time at 10 mg/kg, ip administered 60 min prior to testing measured for 5 min by tail suspension test (reference value: 169.8 +/- 13 secs); assay type: functional; details: route intraperitoneal
Mus musculus [3] = experiment: Antidepressant activity in overnight fasted Mus musculus (mouse) assessed as decrease in immobility time at 100 mg/kg, ip administered 60 min prior to testing measured for 5 min by tail suspension test (reference value: 169.8 +/- 13 secs); assay type: functional; details: route intraperitoneal
Mus musculus [4] = experiment: Antidepressant activity in overnight fasted Mus musculus (mouse) assessed as decrease in immobility time at 30 mg/kg, ip administered 60 min prior to testing measured for 5 min by tail suspension test (reference value: 169.8 +/- 13 secs); assay type: functional; details: route intraperitoneal
Mus musculus [5] = species: Mus musculus; experiment: Behavioral effect in Mus musculus (mouse) assessed as effect on alertness after 3 hr; assay type: functional, organism-based

CN(C)CCSc1n[nH]c(-c2ccccc2)n1
Activity (Mus musculus [1]): Non-toxic | Time (Mus musculus [2]): 117.2 s | Time (Mus musculus [3]): 102 s | Time (Mus musculus [4]): 110.3 s | Activity (Mus musculus [5]): inactive

COc1ccc(-c2nc(SCCN(C)C)n[nH]2)cc1
Activity (Mus musculus [1]): Non-toxic | Time (Mus musculus [2]): 116.3 s | Time (Mus musculus [3]): 103.8 s | Time (Mus musculus [4]): 111 s | Activity (Mus musculus [5]): inactive

Cc1ccc(-c2nc(SCCN(C)C)n[nH]2)cc1
Activity (Mus musculus [1]): Non-toxic | Time (Mus musculus [2]): 172.8 s | Time (Mus musculus [3]): 152.8 s | Time (Mus musculus [4]): 168.2 s | Activity (Mus musculus [5]): inactive

CCN(CC)CCSc1n[nH]c(-c2ccccc2O)n1
Activity (Mus musculus [1]): Non-toxic | Time (Mus musculus [2]): 173.8 s | Time (Mus musculus [3]): 137.3 s | Time (Mus musculus [4]): 163.5 s | Activity (Mus musculus [5]): inactive

CCN(CC)CCSc1n[nH]c(-c2ccc(O)cc2)n1
Activity (Mus musculus [1]): Non-toxic | Time (Mus musculus [2]): 171.8 s | Time (Mus musculus [3]): 151.8 s | Time (Mus musculus [4]): 167.3 s | Activity (Mus musculus [5]): inactive

COc1ccc(-c2nc(SCCN(C3CCCCC3)C3CCCCC3)n[nH]2)cc1
Activity (Mus musculus [1]): Non-toxic | Time (Mus musculus [2]): 101.3 s | Time (Mus musculus [3]): 94.8 s | Time (Mus musculus [4]): 96.3 s | Activity (Mus musculus [5]): inactive

c1ccc(-c2nc(SCCN(C3CCCCC3)C3CCCCC3)n[nH]2)cc1
Activity (Mus musculus [1]): Non-toxic | Time (Mus musculus [2]): 117 s | Time (Mus musculus [3]): 101.7 s | Time (Mus musculus [4]): 109.7 s | Activity (Mus musculus [5]): inactive

CCN(CC)CCSc1n[nH]c(-c2ccccc2)n1
Activity (Mus musculus [1]): Non-toxic | Time (Mus musculus [2]): 145.8 s | Time (Mus musculus [3]): 108.3 s | Time (Mus musculus [4]): 120.7 s | Activity (Mus musculus [5]): inactive

CN(C)CCSc1n[nH]c(-c2ccc(Cl)cc2Cl)n1
Activity (Mus musculus [1]): Non-toxic | Time (Mus musculus [2]): 109 s | Time (Mus musculus [3]): 96.2 s | Time (Mus musculus [4]): 101.8 s | Activity (Mus musculus [5]): inactive

CN(C)CCSc1n[nH]c(-c2ccc(Cl)cc2)n1
Activity (Mus musculus [1]): Non-toxic | Time (Mus musculus [2]): 109.2 s | Time (Mus musculus [3]): 96 s | Time (Mus musculus [4]): 102.2 s | Activity (Mus musculus [5]): inactive

Oc1ccccc1-c1nc(SCCN(C2CCCCC2)C2CCCCC2)n[nH]1
Activity (Mus musculus [1]): Non-toxic | Time (Mus musculus [2]): 162.5 s | Time (Mus musculus [3]): 150 s | Time (Mus musculus [4]): 149.3 s | Activity (Mus musculus [5]): inactive

CCN(CC)CCSc1n[nH]c(-c2ccc(C)cc2)n1
Activity (Mus musculus [1]): Non-toxic | Time (Mus musculus [2]): 178.3 s | Time (Mus musculus [3]): 151.2 s | Time (Mus musculus [4]): 168.2 s | Activity (Mus musculus [5]): inactive

CN(C)CCSc1n[nH]c(-c2ccc(O)cc2)n1
Activity (Mus musculus [1]): Non-toxic | Time (Mus musculus [2]): 161.2 s | Time (Mus musculus [3]): 149 s | Time (Mus musculus [4]): 150.3 s | Activity (Mus musculus [5]): inactive

Clc1ccc(-c2nc(SCCN(C3CCCCC3)C3CCCCC3)n[nH]2)c(Cl)c1
Activity (Mus musculus [1]): Non-toxic | Time (Mus musculus [2]): 96.5 s | Time (Mus musculus [3]): 90.5 s | Time (Mus musculus [4]): 94.5 s | Activity (Mus musculus [5]): inactive

CCN(CC)CCSc1n[nH]c(-c2ccc(Cl)cc2)n1
Activity (Mus musculus [1]): Non-toxic | Time (Mus musculus [2]): 129.7 s | Time (Mus musculus [3]): 103.8 s | Time (Mus musculus [4]): 115 s | Activity (Mus musculus [5]): inactive

Clc1ccc(-c2nc(SCCN(C3CCCCC3)C3CCCCC3)n[nH]2)cc1
Activity (Mus musculus [1]): Non-toxic | Time (Mus musculus [2]): 96.8 s | Time (Mus musculus [3]): 89.2 s | Time (Mus musculus [4]): 94.8 s | Activity (Mus musculus [5]): inactive

CN(C)CCSc1n[nH]c(-c2ccccc2O)n1
Activity (Mus musculus [1]): Non-toxic | Time (Mus musculus [2]): 164.8 s | Time (Mus musculus [3]): 150 s | Time (Mus musculus [4]): 150.8 s | Activity (Mus musculus [5]): inactive

CN(C)CCCN1c2ccccc2CCc2ccccc21 [IMIPRAMINE]
Time (Mus musculus [2]): 95.8 s

CCN(CC)CCSc1n[nH]c(-c2ccc(Cl)cc2Cl)n1
Activity (Mus musculus [1]): Non-toxic | Time (Mus musculus [2]): 121.8 s | Time (Mus musculus [3]): 103.2 s | Time (Mus musculus [4]): 110 s | Activity (Mus musculus [5]): inactive

Cc1ccc(-c2nc(SCCN(C3CCCCC3)C3CCCCC3)n[nH]2)cc1
Activity (Mus musculus [1]): Non-toxic | Time (Mus musculus [2]): 165 s | Time (Mus musculus [3]): 150 s | Time (Mus musculus [4]): 151.3 s | Activity (Mus musculus [5]): inactive

Oc1ccc(-c2nc(SCCN(C3CCCCC3)C3CCCCC3)n[nH]2)cc1
Activity (Mus musculus [1]): Non-toxic | Time (Mus musculus [2]): 157.5 s | Time (Mus musculus [3]): 112.7 s | Time (Mus musculus [4]): 126.2 s | Activity (Mus musculus [5]): inactive

CCN(CC)CCSc1n[nH]c(-c2ccc(OC)cc2)n1
Activity (Mus musculus [1]): Non-toxic | Time (Mus musculus [2]): 139 s | Time (Mus musculus [3]): 103.8 s | Time (Mus musculus [4]): 118.5 s | Activity (Mus musculus [5]): inactive
